Earlier results, collected in US10306887B2, “Composition and methods for modulation of the octopamine receptor and its homologs” (THE BOARD OF REGENTS OF THE UNIVERSITY OF TEXAS SYSTEMS, priority 2014, dated 2019).
Entries after “also recorded” stand apart in the source; their conditions may differ.

What was measured:
[1] = test system: mated tdc2 or tβh females
[2] = test system: dissected reproductive system

NCC(O)c1ccc(O)cc1 (stereo not drawn) [OA, β,4-dihydroxyphenethylamine]
egg-laying ([1]; OA feeding, mated tdc2 or tβh mutant females): sufficient to induce egg-laying
sterility ([1]; feeding OA to mated tβh mutant females): rescues sterility
muscle contractions in the ovary ([2]; OA applied to dissected reproductive system, ovary): enhances muscle contractions in the ovary
muscle contractions in the oviduct ([2]; OA applied to reproductive system, oviduct): inhibits them in the oviduct; also recorded: relaxes the oviduct muscle
